13 compounds from patent publication US20240425529A1, “BORIC ACID DERIVATIVE” (SHOUYAO HOLDINGS (BEIJING) CO., LTD., priority 2021, published 2024) can be followed below.

One assay addresses T1, β5 (Homo sapiens, UniProt P28074).
T1 construct: using HEK-293 cell lysate as the enzyme source of D5; endogenous in cells; host or cells: HEK-293 (human embryonic kidney cells)
The experiment in a line: Enzymatic inhibitory activity on β5 (HEK-293 cell lysate, Ac-WLA-AMC substrate). As to conditions: 1 hour pre-incubation. The assay is classed as biochemical. The source says:
β5 is a catalytic subunit of immunoproteasomes. In this experiment, an enzymatic detection platform was established using its hydrolytic enzyme activity and used for compound activity detection. Using Ac-WLA-AMC (Bonston Biochem, Cat #5-330) as a substrate for D5, the amount of fluorescent group AMC (7-amino-4-methylcoumarin) released after hydrolysis can reflect the enzymatic activity. […] We established an enzymatic detection method for compound inhibition on D5 using HEK-293 cell lysate as the enzyme source of D5 and detected the compound inhibitory activity (half inhibitory concentration, IC50). The enzymatic inhibitory activity of compounds against D5 was used as a measure index of compound selectivity.
(§1) HEK-293 cells were cultured in a 75 cm^2 cell culture flask (Corning) (37° C., 95% air, and 5% CO2) with DMEM (Biological Industries) medium containing 10% fetal bovine serum (Biological Industries) and 1% Pen Strep (Gibco) and passaged 2-3 times one week. 1×10^7 HEK-293 cells were collected, resuspended in 1 ml of PBS (Solarbio), and centrifuged at 3000 rpm for 5 minutes. The supernatant was aspirated off. The cells were resuspended in 500 μl of lysis buffer (20 mM Tris, pH 8.0, 5 mM EDTA, plus Protease inhibitor (1:1000) and Phosphatase Inhibitor (1:100) when used) and left on ice for 30 minutes. The cells were broken by supersonic technique, 0.5 S on, 0.5 S off, for 2.5 S. The centrifuge was performed at 12000 rpm, 4° C. for 10 minutes. The supernatant was the cell lysate and protein quantification was performed using the BCA method (Thermo, #23225).
Compounds were diluted in a 5-fold gradient with 100% DMSO for a total of 9 concentrations. 2 W for each concentration was added to a 48-μl reaction buffer (20 mM Tris, pH 8.0, 0.5 mM EDTA) and mixed well as 4* compound (final concentrations: 100000, 20000, 4000, 800, 160, 32, 6.4, 1.28, and 0 nM) for later use. A reaction buffer was used to prepare 4*HEK-293 cell lysate at a final concentration of 25 ng/μl and 2*Ac-WLA-AMC at a final concentration of 20 μM. 5 W of 4* compound was added to a 384-well plate (OptiPlate-384, purchased from PerkinElmer), added with 5 W of 4*HEK-293 cell lysate, centrifuged, and reacted in an incubator at 23° C. for 1 hour. 10 W of 2* Ac-WLA-AMC was added and the reaction was started by centrifugation at 23° C. in the dark for 2 hours. After completion of the reaction, the signal value (excitation wavelength 345 nm/emission wavelength 445 nm) was read on the CLARIO star^Plus (purchased from BMG LRBTECH). Enzyme activity was determined at 9 concentrations for each compound, and data were processed using the GraphPad Prism software to calculate the half inhibitory concentration of the compound on D5, i.e. the IC50 value.

The target of assay [1] is T2, LMP7 (Homo sapiens, UniProt P28062).
T2 construct: using MOLT-4 cell lysate as the enzyme source of LMP7; endogenous in cells; host or cells: MOLT-4 (human acute lymphoblastic leukemia cells)
The experiment in a line: Enzymatic inhibitory activity on LMP7 (MOLT-4 cell lysate, Ac-ANW-AMC substrate). The assay is classed as biochemical. As to conditions: 1 hour pre-incubation.
Text: LMP7 is a catalytic subunit of immunoproteasomes. In this experiment, an enzymatic detection platform was established using its hydrolytic enzyme activity and used for compound activity detection. Using Ac-ANW-AMC (Bonston Biochem, Cat #S-320) as a substrate for LMP7, the amount of fluorescent group AMC (7-amino-4-methylcoumarin) released after hydrolysis can reflect the enzymatic activity. MOLT-4 cells are human acute lymphoblastic leukemia cells and have been identified as cells with high expression of LMP7. We established an enzymatic detection method for compound inhibition on LMP7 using MOLT-4 cell lysate as the enzyme source of LMP7 and detected the compound inhibitory activity (half inhibitory concentration, IC50).
as §1, with “MOLT-4 cells were” for “HEK-293 cells were”, “CO2) with RPMI-1640 (Biological Industries)” for “CO2) with DMEM (Biological Industries)”, “week. 1×10^7 MOLT-4 cells were” for “week. 1×10^7 HEK-293 cells were”, “was performed by using the” for “was performed using the”
Compounds were diluted in a 5-fold gradient with 100% DMSO for a total of 9 concentrations: 2 W for each concentration was added to a 48-μl reaction buffer (20 mM Tris, pH 8.0, 0.5 mM EDTA) and mixed well as 4* compound (final concentrations: 2000, 400, 80, 16, 3.2, 0.64, 0.128, 0.0256, and 0 nM) for later use. A reaction buffer was used to prepare 4* MOLT-4 cell lysate at a final concentration of 20 ng/μl and 2*Ac-ANW-AMC at a final concentration of 100 µM. 5 μl of 4* compound was added to a 384-well plate (OptiPlate-384, purchased from PerkinElmer), added with 5 W of 4* cell lysate, centrifuged, and reacted in an incubator at 23° C. for 1 hour. 10 W of 2* Ac-ANW-AMC was added and the reaction was started by centrifugation at 23° C. in the dark for 2 hours. After completion of the reaction, the signal value (excitation wavelength 345 nm/emission wavelength 445 nm) was read on the CLARIO star^Plus (purchased from BMG LRBTECH). Enzyme activity was determined at 9 concentrations for each compound, and data were processed using the GraphPad Prism software to calculate the half inhibitory concentration of the compound on LMP7, i.e. the IC50 value.

Assay [2] concerns the target T2, LMP7. The experiment in a line: Cytological inhibitory activity on LMP7 in MOLT-4 cells. The assay is classed as cell-based. The note with it: incubation for 2 hours with compound, read-out: Cytological activity data LMP7 Activity (MOLT-4Cell). On the procedure: MOLT-4 are human acute lymphoblastic leukemia cells and have been identified as cells with high expression of LMP7. In this experiment, the compounds were pre-incubated with MOLT-4, and Ac-ANW-AMC (BonstonBiochem, Cat #S-320) was used as the substrate of LMP7 to establish the detection method for the enzymatic activity of LMP7 in cells and detect the compound inhibitory activity (half inhibitory concentration, IC50).
Cells were plated in a 24-well plate (Corning) at a concentration of 1.5×10^5/ml per well. The next day compounds were prepared and diluted in a 5-fold gradient from 2 mM in 100% DMSO for a total of 8 concentrations. 2 μl for each concentration of the compound was added to a 1-ml cell culture medium, supplemented with 1 ml of RPMI-1640 only (final FBS concentration 5%, v/v). The compounds were mixed with the cells. After incubation for 2 hours in the incubator, the cells were centrifuged at 2000 rpm for 8 minutes to discard the supernatant. The cells were washed once with 2 ml PBS (Solarbio), and centrifuged again to discard the supernatant. The cells were resuspended in 100 μl of lysis buffer (20 mM Tris, pH 8.0, 5 mM EDTA, plus Protease inhibitor (1: 100) and Phosphatase Inhibitor (1:100) when used) and left in a 4° C. refrigerator for 45 minutes.
After 2 min. of centrifuge at 2000 rpm, the lysate was transferred from the 24-well plate to a 96-well plate, and centrifuged at 2000 rpm, 4° C., for 15 min. The supernatant was the lysate. Protein quantification was performed using the BCA method (Thermo, #23225). A 2* lysate was prepared with the reaction buffer (20 mM Tris, pH 8.0, 0.5 mM EDTA) at a final concentration of 20 ng/μl. 2* Ac-ANW-AMC was prepared with the reaction buffer at a final concentration of 100 μM. 10 µl of 2* lysate was added to a 384-well plate (OptiPlate-384, purchased from PerkinElmer), and added with 10 W of 2* Ac-ANW-AMC. The reaction was started by centrifugation at 23° C. in the dark for 1 hour. After completion of the reaction, the signal value (excitation wavelength 345 nm/emission wavelength 445 nm) was read on the CLARIO starPlus (purchased from BMG LRBTECH). Enzyme activity was determined at 8 concentrations for each compound, and data were processed using the GraphPad Prism software to calculate the half inhibitory concentration of the compound on LMP7 hydrolase in MOLT-4 cells, i.e. the IC50 value.

`O=C(Nc1cccnc1)C(=O)N[C@@H](Cc1coc2ccccc12)B(O)O` [Ex. 21, (R)-(2-(benzofuran-3-yl)-1-(2-(pyridin-3-yl)amino-2-oxoacetamido)ethyl) boronic acid]: the IC50 on β5 stood at 29 nM; at LMP7 [1] it was 2.86 nM; at LMP7 [2] it was 3.45 nM.

Turning to `O=C(Nc1cnccn1)C(=O)N[C@@H](Cc1coc2ccccc12)B1OCCCO1` [Ex. 70], the IC50 came out at 26 nM on β5, 1.5 nM on LMP7 [1] and 0.91 nM on LMP7 [2].

`O=C(Nc1cccc2c1OCC2)C(=O)N[C@@H](Cc1coc2ccccc12)B(O)O` [Ex. 28, (R)-(2-(benzofuran-3-yl)-1-(2-oxo-2-((2,3-dihydrobenzofuran-7-yl)amino)acetamido)ethyl)boronic acid]: the values for the IC50 on β5, against LMP7 [1] and on LMP7 [2] were 22.6 nM, 3.82 nM and 3.84 nM, respectively.

`O=C(Nc1cccc2c1OCCO2)C(=O)N[C@@H](Cc1coc2ccccc12)B(O)O` [Ex. 30, (R)-(2-(benzofuran-3-yl)-1-(2-oxo-2-((2,3-dihydrobenzo[b][1,4]dioxin-5-yl)amino)acetamido)ethyl)boronic acid]: the IC50 stood at 24.6 nM on β5, 5.61 nM at LMP7 [1] and 8.77 nM on LMP7 [2].

For `CC1(C)[C@@H]2C[C@H]3OB([C@H](Cc4coc5ccccc45)NC(=O)C(=O)Nc4ncc(F)s4)O[C@@]3(C)[C@H]1C2` [Ex. 33, (R)-(2-(benzofuran-3-yl)-1-(2-oxo-2-((5-fluorothiazol-2-yl)amino)acetamido)ethyl)boronic acid (1S,2S,3R,5S)-(+)-pinane-2,3-diol ester], the IC50 worked out at 39 nM on β5, 3.08 nM against LMP7 [1] and 9.5 nM on LMP7 [2].

Turning to `CCN(CC)C(=O)C(=O)N[C@@H](Cc1coc2ccccc12)B(O)O` [Ex. 4, (R)-(2-(benzofuran-3-yl)-1-(2-(diethylamino)-2-oxoacetamido)ethyl)boronic acid], the IC50 against LMP7 [1] stood at 22.3 nM.

Consider `O=C(NC1CCOCC1)C(=O)N[C@@H](Cc1coc2ccccc12)B(O)O` [Ex. 11, (R)-(2-(benzofuran-3-yl)-1-(2-oxo-2-((tetrahydro-2H-pyran-4-yl)amino)acetamido)ethyl)boronic acid], for which the results for the IC50 on β5 and against LMP7 [1] were 123 nM and 7.3 nM, respectively.

As for `C[C@@H](NC(=O)C(=O)N[C@@H](Cc1coc2ccccc12)B(O)O)c1ccccn1` [Ex. 8, ((R)-2-(benzofuran-3-yl)-1-(2-oxo-2-(((R)-1-(pyridin-2-yl)ethyl)amino)acetamido)ethyl)boronic acid], the IC50 against LMP7 [1] was found to be 24.7 nM.

In turn, `CNC(=O)C(=O)N[C@@H](Cc1coc2ccccc12)B(O)O` [Ex. 2, (R)-(2-(benzofuran-3-yl)-1-(2-(methylamino)-2-oxoacetamido)ethyl)boronic acid] registered an IC50 at LMP7 [1] of 26.9 nM.

For `CN(C)C(=O)C(=O)N[C@@H](Cc1coc2ccccc12)B(O)O` [Ex. 6, (R)-(2-(benzofuran-3-yl)-1-(2-(dimethylamino)-2-oxoacetamido)ethyl)boronic acid], the IC50 against LMP7 [1] worked out at 28.5 nM.

As to `O=C(N[C@H]1CCOC1)C(=O)N[C@@H](Cc1coc2ccccc12)B(O)O` [Ex. 7, ((R)-2-(benzofuran-3-yl)-1-(2-oxo-2(((S)-tetrahydrofuran-3-yl)amino)acetamido)ethyl) boronic acid], the IC50 on β5 was found to be 123 nM; on LMP7 [1] it was 7.7 nM.

Consider `O=C1CC[C@H](N2C(=O)c3ccc(N4CCN(CC5CCN(C(=O)C(=O)N[C@@H](Cc6coc7ccccc67)B(O)O)CC5)CC4)cc3C2=O)C(=O)N1` [Ex. 16, ((R)-2-(benzofuran-3-yl)-1-(2-(4-((4-(2-((S)-2,6-dioxopiperidin-3-yl)-1,3-dioxoisoindolin-5-yl)piperazin-1-yl)methyl)piperidin-1-yl)-2-oxoacetamido)ethyl)boronic acid], for which the IC50 against β5 is 58.7 nM; at LMP7 [1], 32.9 nM.

As for `CON(C)C(=O)C(=O)N[C@@H](Cc1coc2ccccc12)B(O)O` [Ex. 3, (R)-(2-(benzofuran-3-yl)-1-(2-(methoxy(methyl)amino)-2-oxoacetamido)ethyl) boronic acid], the IC50 on β5 was 507 nM; on LMP7 [1], 13 nM.
